The source made the active and inactive calls.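 Rule for the calls: active = signal falls with dose and the fitted half-maximal concentration is at or below twice the top valid tested dose; inconclusive = flat curve with 30 to 70% inhibition, or poor fit; inactive = wrong direction, flat within 30%, or potency beyond limit.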
Target: Golgi-associated PDZ and coiled-coil motif-containing protein (Homo sapiens) (UniProt Q9HD26)
Assay: CAL PDZ domain peptide-binding inhibitors, dose response, biochemical, fluorescence polarization, untagged CAL PDZ, cherry-pick (AID 602267);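 for activity change, negative = inhibition: 0% = DMSO neutral wells and -100% = excess unlabeled competitor peptide wells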
Conditions: purified CAL PDZ, TMR-peptide fluorescence polarization, 1 h

| SMILES | AC50 [µM] |
| --- | --- |
| COc1ccc2noc3c2c1C(=O)c1ccccc1-3 | 1.78 |
| CCNc1ccc2noc3c2c1C(=O)c1ccccc1-3 | 4.74 |
| O=C(O)CSc1cc(NS(=O)(=O)c2cccc([N+](=O)[O-])c2)c2ccccc2c1O | 15.9 |

Same assay, conditions: purified CAL PDZ, TMR-peptide fluorescence polarization, 1 h; at 16 µM (top of the series)

| SMILES | activity change, negative = inhibition |
| --- | --- |
| O=C(c1ccccc1)C(c1ccccc1)c1ccccc1 | inactive |
| COc1ccc(N2CCN(C(=O)c3cccc4nc(C)oc34)CC2)cc1 | inactive |

Same assay, conditions: purified CAL PDZ, TMR-peptide fluorescence polarization, 1 h; at 50 µM (top of the series)

| SMILES | activity change, negative = inhibition |
| --- | --- |
| COCCCNC(=O)c1cc(S(=O)(=O)N2CCOCC2)ccc1SCc1cccc(OC)c1OC | inactive |
| CC1(C2CC2)NC(=O)N(CC(=O)NCC(=O)Nc2ccc(F)c(F)c2F)C1=O (stereo not drawn) | inactive |
| Cc1ccc(Cl)c2c(N=Nc3ccccc3)c(O)[nH]c12 | inactive |
| CC1=C(C#N)C(=O)NC(=O)/C1=C\c1ccc(-c2cc(C)c(C)cc2[N+](=O)[O-])o1 | inactive |
| O=C(c1cccs1)N1CCN(C(=O)N2CCOCC2)CC1 | inactive |
| Oc1ccc(C=Nc2cccc3ccccc23)c(O)c1 | inactive |
| COc1ccc(C2/C(=C(/O)c3ccc(C)cc3)C(=O)C(=O)N2C)c(OC)c1 (stereo not drawn) | inactive |
| CN=c1scc(C)n1/N=C/c1cc(Br)c(O)c(Br)c1 | inactive |
| O=C(COc1ccc(Cl)cc1Cl)Nc1nnc(C2=COCCO2)o1 | inactive |
| O=C(CCc1nc(-c2ccc(Cl)cc2)no1)NC1CCCCC1 | inactive |
| Fc1ccc(-n2c(-c3ccc4ccccc4n3)n[nH]c2=S)cc1Cl | inactive |
| O=C(COC(=O)c1cccc(O)c1)NC(=O)Cc1ccccc1 | inactive |
| O=C(NCc1ccccc1Cl)C1CC(=O)N(Cc2ccccc2)C1 (stereo not drawn) | inactive |
| COc1ccc(OC)c(NC(=O)c2ccc(OC3CSC3)cc2)c1 | inactive |
| CCc1noc(C)c1C(=O)N1CCCC(CCC(=O)NCc2ccc(F)c(F)c2)C1 (stereo not drawn) | inactive |
| CC1CCN(C(=O)COC(=O)c2cccs2)CC1 | inactive |
| C[n+]1ccc(C(=O)Nc2ccccc2Cl)cc1 | inactive |
| CC(C)CNC(=O)CN1C(=O)NC(Cc2c[nH]c3ccccc23)C1=O (stereo not drawn) | inactive |
| CC(=O)Nc1sc2c(c1C(c1ccccn1)N1CCN(C)CC1)CCCC2 (stereo not drawn) | inactive |
| Cc1ccc(CN(C(=O)c2ccco2)C(C(=O)NC2CCCC2)c2cccnc2)cc1 (stereo not drawn) | inactive |
| O=C(NCc1ccccn1)c1ccc(NS(=O)(=O)c2ccccc2)cc1 | inactive |

| SMILES | activity change, negative = inhibition |
| --- | --- |
| COC(=O)c1cccc([N+](=O)[O-])c1CS(=O)(=O)c1ccc(C)cc1 | inactive |
| CN(C)CCNC(=O)COc1cccc2c1OC(C)(C)C2 | inactive |
| COCCOC(=O)c1c(C)oc2ccc(OS(C)(=O)=O)cc12 | inactive |
| CN(CC1CCCO1)S(=O)(=O)c1ccc(C(=O)Nc2ccc([N+](=O)[O-])cc2)cc1 (stereo not drawn) | inactive |
| COc1ccc(C(=O)NC2(C(F)(F)F)C(=O)Nc3c2c(=O)[nH]c(=O)n3CCc2ccc(OC)c(OC)c2)cc1 (stereo not drawn) | inactive |
| CC(C)n1cc(C(=O)N2CCCC(N3CCN(c4ccc(F)cc4)CC3)C2)cn1 (stereo not drawn) | inactive |
| O=C(O)c1ccc(Oc2cc(Oc3ccc(C(=O)O)cc3)cc([N+](=O)[O-])c2)cc1 | inactive |
| Cc1ccc(-c2nnn(CC(=O)N(CCN3CCOCC3)C(C(=O)NC(C)(C)C)c3ccc(C)o3)n2)cc1 (stereo not drawn) | inactive |
| Cc1cccc(NS(=O)(=O)Cc2ccccc2)c1C | inactive |
| COC(=O)[C@H]1[C@H]2C[C@@H]3c4[nH]c5cc(OC)ccc5c4CCN3C[C@H]2C[C@@H](OC(=O)/C=C/c2cc(OC)c(OC)c(OC)c2)[C@@H]1OC | inactive |
| CC(=O)Nc1ccc(N/C=C/C(=O)c2ccccc2)cc1 | inactive |
| Cc1nn(C)c(C)c1S(=O)(=O)N1CCC(CO)(CC2CCCCO2)CC1 (stereo not drawn) | inactive |
| c1ccc(CNc2nc(NCc3ccccc3)c3ccccc3n2)cc1 | inactive |
| CCCOc1ccc(CC(=O)N/N=C\c2ccc(F)cc2)cc1 | inactive |
| CSc1ccccc1NC(=O)c1ccccc1 | inactive |
| CC(C)(C)OC(=O)N[C@@H](Cc1c[nH]c2ccccc12)c1nnc(SCC(N)=O)o1 | inactive |
| CCC(C)NC(=O)C1CCCN(C(=O)Nc2ccc(F)cc2)C1 (stereo not drawn) | inactive |
| FC(F)(F)Oc1ccc(NC(=S)NCCCN2CCOCC2)cc1 | inactive |
| CC(=Nc1ccccc1O)c1sc2ccccc2c1O | inactive |
| C=CCOc1ccc2ccccc2c1CNn1cn[nH]c1=S | inactive |
| COc1ccc(Cl)cc1C(=O)Nc1ccc2c(c1)OCCO2 | inactive |

| SMILES | activity change, negative = inhibition |
| --- | --- |
| Cc1cc(C)nc(CCNC(=O)c2cc(COc3c(C)cccc3C)on2)n1 | inactive |
| CCCCC(CCC(=O)Nc1nccs1)C(=O)O (stereo not drawn) | inactive |
| Cn1nc(C(=O)N2CCCc3ccccc32)c2ccccc2c1=O | inactive |
| CCN(CCCn1c(=S)[nH]c2ccc(N3CCOCC3)cc2c1=O)c1ccccc1 | inactive |
| CC(C)CNC(=O)CC1Nc2ccccc2NC1=O (stereo not drawn) | inactive |
| c1ccc(C(Nc2cccnc2)c2ccccc2)cc1 | inactive |
| O=C(COC(=O)CNC(=O)c1cccc([N+](=O)[O-])c1)NCc1ccco1 | inactive |
| C/C(=C/c1ccccc1)C(=O)N1CCN(c2ccccc2)CC1 | inactive |
| O=C(CSc1nccc(=O)[nH]1)Nc1ccc(Oc2ccccc2)cc1 | inactive |
| NS(=O)(=O)c1ccc(N2N=C(c3ccccc3)CC2c2ccccc2)cc1 (stereo not drawn) | inactive |
| CC1CCC(NS(=O)(=O)c2ccc3c(c2)n(C)c(=O)c(=O)n3C)CC1 (stereo not drawn) | inactive |
| COc1ccc(CN2CCCC(N3CCN(c4cccc(Cl)c4)CC3)C2)cc1OC (stereo not drawn) | inactive |
| Cc1nc(Cl)sc1C(=O)Nc1cc(F)cc(F)c1 | inactive |
| Cc1ccc2nc(-c3cccc(Br)c3)cc(C(=O)NC3=NCCS3)c2c1 | inactive |
| CS(=O)(=O)N1CCN(C(=O)c2ccc3c(c2)OCCO3)CC1 | inactive |
| O=C(C=Cc1ccccc1)c1cc(Br)ccc1O | inactive |
| NC(=O)C1CCN(c2ncccc2[N+](=O)[O-])CC1 | inactive |
| O=C(Nc1ccc(Cl)cc1)c1ccc(CN2CCc3ccccc3C2)cc1 | inactive |
| Cn1c(CNC(=O)OC(C)(C)C)n[nH]c1=S | inactive |
| CCOC(=O)c1ccc(NC(=S)N2CCCC(C(=O)N3CCCC3)C2)cc1 (stereo not drawn) | inactive |
| Cc1ccccc1-n1c(C)c(C#N)c(=O)c(-[n+]2ccccc2)c1[S-] | inactive |
